The structures appear in SMILES notation. Active and inactive are the calls of the source. No cut-off for these calls is given here.

In data set [1] the test system is Plasmodium falciparum. Description: Antimalarial activity against Plasmodium falciparum W2. In kind it is functional, organism-based.
In data set [2] the test system is Plasmodium falciparum. The data set is described as follows: Antimalarial activity against Plasmodium falciparum D6. The format is functional, organism-based.
Data set [3] has as its system Plasmodium falciparum. The data set is described as follows: Antimalarial activity against Plasmodium falciparum TM91C235. The format is functional, organism-based.
Data set [4] deals with Plasmodium berghei. The data set is described as follows: Antimalarial activity as survivors after 31 days in Plasmodium berghei KBG173 infected CD1 mice (Mus musculus) at 320 mg/kg/day. The format is functional, organism-based. Particulars: KBG 173.
Data set [5] deals with Plasmodium berghei. Description: Antimalarial activity as survivors after 31 days in Plasmodium berghei KBG173 infected CD1 mice (Mus musculus) at 10 mg/kg/day. As to conditions: KBG 173. The format is functional, organism-based.
For data set [6], the system named is Mus musculus. Description: Survival of Plasmodium berghei KBG 173 infected CD1 mice (Mus musculus) at 40 mg/kg/day. In kind it is ADME, organism-based. Particulars: in vivo.
Data set [7] concerns Mus musculus. The data set is described as follows: Survival of Plasmodium berghei KBG 173 infected CD1 mice (Mus musculus) at 320 mg/kg/day. In kind it is ADME, organism-based. As to conditions: in vivo.
For data set [8], the system named is Mus musculus. The data set is described as follows: Survival of Plasmodium berghei KBG 173 infected CD1 mice (Mus musculus) at 80 mg/kg/day. As to conditions: in vivo. The format is ADME, organism-based.
In data set [9] the test system is Mus musculus. Description: Survival of Plasmodium berghei KBG 173 infected CD1 mice (Mus musculus) at 10 mg/kg/day. The format is ADME, organism-based. Particulars: in vivo.
Data set [10] is described as follows: Metabolic stability in human liver microsomes. The format is ADME, Microsome. Particulars: liver microsomes. (Microsomes from liver hold many membrane-bound enzymes, among them those of drug oxidation.)
A short description of data set [11]: Metabolic stability in mouse liver microsomes. The format is ADME, Microsome. Particulars: liver microsomes.
Data set [12] has as its system NCI. The data set is described as follows: Growth inhibition of human NCI DTP 60 cells. The format is functional. As to conditions: Homo sapiens, NCI.
Data set [13] concerns LOX IMVI. Description: Antiproliferative activity against human LOX IMVI cells after 48 hrs. In kind it is functional.
Data set [14] deals with HOP-62. Description: Antiproliferative activity against human HOP62 cells after 48 hrs. The format is functional. As to conditions: HOP-62, 48 h.
The subject of data set [15] is HCT-116. Description: Antiproliferative activity against human HCT116 cells after 48 hrs. In kind it is functional. Particulars: HCT-116, 48 h; for CC50: read-out: LC50 (the source's name).
The test system of data set [16] is SF-268. Description: Antiproliferative activity against human SF268 cells after 48 hrs. As to conditions: SF-268, 48 h. The format is functional.
Data set [17] can be described thus: (§1) Toxicity in Plasmodium berghei KBG 173 infected CD1 mice (Mus musculus). The format is organism-based. Particulars: CD1, mouse, in vivo.
For data set [18], the species on record is Mus musculus. The description is as §1. As to conditions: mouse, in vivo. In kind it is organism-based.
For data set [19], the system named is Mus musculus. The data set is described as follows: Survival of Plasmodium berghei KBG 173 infected CD1 mice (Mus musculus) at 160 mg/kg/day. The format is ADME, organism-based. Particulars: in vivo.
Data set [20] relates to 786-0. The data set is described as follows: Antiproliferative activity against human 786-0 cells after 48 hrs. In kind it is functional. Particulars: Homo sapiens, 786-0, 48 h.
The subject of data set [21] is CCRF-CEM. Description: Antiproliferative activity against human CCRF-CEM cells after 48 hrs. In kind it is functional.
Data set [22] relates to COLO 205. Description: Antiproliferative activity against human COLO205 cells after 48 hrs. The format is functional.
Data set [23] concerns HCC 2998. Description: Antiproliferative activity against human HCC2998 cells after 48 hrs. In kind it is functional. Particulars: HCC 2998, 48 h.
Data set [24] concerns HCT-15. Description: Antiproliferative activity against human HCT15 cells after 48 hrs. In kind it is functional. Particulars: HCT-15, 48 h.
Data set [25] has as its system T47D. Description: Antiproliferative activity against human T47D cells after 48 hrs. In kind it is functional.
Data set [26] relates to U-251. The data set is described as follows: Antiproliferative activity against human U251 cells after 48 hrs. Particulars: U-251, 48 h. In kind it is functional.
Data set [27] concerns M14. Description: Antiproliferative activity against human M14 cells after 48 hrs. In kind it is functional. As to conditions: M14, 48 h, read-out: LC50 (the source's name).
In data set [28] the test system is Plasmodium berghei. Description: Antimalarial activity as survivors after 31 days in Plasmodium berghei KBG173 infected CD1 mice (Mus musculus) at 40 mg/kg/day. The format is functional, organism-based. Particulars: KBG 173.
Where [29] appears, read: Plasmodium falciparum, TM91C235.
Where [30] appears, read: read-out: LC50 (the source's name).

In the case of `CC(=O)O[C@H]1C[C@H]2[C@@H]([C@H](OC(C)=O)C[C@@H]3CC4(CC[C@@]32C)OOC2(CCCCC2)OO4)[C@@H]2CC[C@H]([C@H](C)CCC(=O)NCCN(C)C)[C@@]12C`, the IC50 – broadly, the concentration needed to halve the response being measured – stood at 0.0145 µM in data set [1] (Plasmodium falciparum, W2); 0.0282 µM in data set [2] (Plasmodium falciparum, D6); 0.0196 µM in [3] (setting [29]). Moreover, the 90% effect concentration (IC90) (commonly the concentration needed for an effect of 90%) in data set [1] (Plasmodium falciparum, W2) was 0.0451 µM; in [2] (Plasmodium falciparum, D6), 0.0451 µM; in data set [3] (setting [29]) it was 0.0379 µM. Moreover, the outcome in [4] was Active. For the same compound, the result in [5] was inactive. The Survival in data set [6] turned out to be 21 days; in data set [7], 31 days; in data set [8] it was 25 days; in data set [9] it was 8 days. Further, the half-life in data set [10] and in [11] was 40 min each time. For the same compound, the concentration for 50% growth inhibition (GI50) (usually the concentration at which growth is held to half of that of the control) in data set [12] was < 0.01 µM; in data set [13] (Homo sapiens, LOX IMVI, 48 h) it was < 0.01 µM; in [14], < 0.01 µM; in [15], 0.0831 µM; in data set [16], 0.785 µM. Besides, the LC50 (concentration killing 50% of cells) in data set [13] (Homo sapiens, LOX IMVI, 48 h) is 0.0688 µM. Besides, the concentration for total growth inhibition (TGI) (as a rule, the concentration giving total growth inhibition) in data set [13] (Homo sapiens, LOX IMVI, 48 h) was found to be 0.0224 µM; in data set [14], 0.0166 µM; in [15], 1.69 µM; in data set [16], 2.25 µM. Also, the 50% lethal concentration (LC50) (as a rule, the concentration that kills 50% of the test population) in data set [14] is 0.083 µM. Besides, the CC50 was 4.62 µM in data set [15] and 5.35 µM in [16] (setting [30]). Further, in data set [17], the MTD was > 960 mg/kg. In data set [18], the MCD entry is reported as “<= 40 mg/kg/day”.

For the compound `CC(=O)O[C@H]1C[C@H]2[C@@H](CC[C@@H]3CC4(CC[C@@]32C)OOC2(CCC(C)CC2)OO4)[C@@H]2CC[C@H]([C@H](C)CCC(=O)NCCN(C)C)[C@@]12C` (stereo in doubt; 16) [listing 1 of 2 here], the 50% inhibitory concentration (IC50) in data set [1] worked out at 0.0168 µM; in [2], 0.0128 µM; in data set [3] it was 0.0147 µM. Besides, the 90% effect concentration (IC90) in data set [1] was determined as 0.0198 µM; in [2] it was 0.0187 µM; in [3], 0.0243 µM. Besides, the Survival is 29 days in [19] and 9 days in data set [6]. The half-life (usually the time in which the quantity being followed falls by half) is 110 min in data set [10] and > 120 min in [11]. The GI50 was 0.06 µM in data set [20]; < 0.005 µM in [13] (Homo sapiens, LOX IMVI, 48 h); 0.054 µM in [14]; 0.077 µM in data set [23]; 0.009 µM in data set [15]; 0.094 µM in data set [24]. Further, the GI50 in [25] came to 0.13 µM; in data set [26], 0.026 µM. Moreover, the concentration for total growth inhibition (TGI) turned out to be 0.15 µM in [20]; 0.0074 µM in [13] (Homo sapiens, LOX IMVI, 48 h); 0.17 µM in data set [21] (Homo sapiens, CCRF-CEM, 48 h); 0.23 µM in data set [14]; 0.02 µM in data set [22] (Homo sapiens, COLO 205, 48 h); 0.21 µM in [23]. Further, the total growth inhibition concentration (TGI) amounted to 0.021 µM in data set [15], 0.41 µM in data set [25] and 0.087 µM in [26]. The CC50 in data set [20] (setting [30]) is 0.39 µM; in [22] (Homo sapiens, COLO 205, 48 h, read-out: LC50 (the source's name)) it was 0.49 µM; in data set [23] (setting [30]) it was 0.98 µM; in [15], 0.047 µM; in data set [27], 0.46 µM. For the same compound, the LC50 (concentration killing 50% of cells) in [13] worked out at 0.022 µM; in data set [21] (Homo sapiens, CCRF-CEM, 48 h), 0.5 µM. Further, the GI in data set [21] was 0.056 µM; in data set [22], 0.083 µM. The compound further yielded an LC50 in data set [14] of 1.16 µM.

In the case of `CC(=O)O[C@H]1C[C@H]2[C@@H](CC[C@@H]3CC4(CC[C@@]32C)OOC2(CCC(C)CC2)OO4)[C@@H]2CC[C@H]([C@H](C)CCC(=O)NCCN(C)C)[C@@]12C` (stereo in doubt; 16) [listing 2 of 2 here], in data set [28], the result was inactive.

(Values after ChEMBL document CHEMBL1148828, “Deoxycholic acid-derived tetraoxane antimalarials and antiproliferatives(1)” (J Med Chem, 2007).)
